“And” between values parts separate entries of the source, which are not always exact repeats. Identical values can stand only once.
Test system: 857933-349-R-J2-PDC complex spheroids, viability
Test: Anticancer human tumor 857933-349-R-J2-PDC patient-derived colon adenocarcinoma cell line growth inhibition [GQUAD]
Settings: for viability, T/C: stronger effect = lower value; active = viability on the fitted dose curve at most 10% of control; inactive = the rest
Source text: DNA G-quadruplex Stabilizer Agents in Combinations in Complex Spheroids
A high-throughput screen of multi-cell type tumor spheroids was designed to identify active combinations of DNA G-quadruplex stabilizer agents and targeted small molecules. Complex spheroids include a stromal component modeled by human endothelial cells (HUVEC) and fibroblasts modeled by human mesenchymal stem cells (MSCs). The concentration ranges selected for each drug and investigational agent were based upon clinically achievable concentrations if the clinical Cmax of the agent was known.
Compounds. The drugs and investigational agents: pidnarulex (CX-5461; NSC782164), APTO-253 (NSC789042), BRACO-19 (NSC847499), peposertib (NSC802822), ceralasertib (NSC780249), elimusertib (NSC800525), camonsertib (NSC841442), AZD-1390 (NSC803789), olaparib (NSC753686), talazoparib (NSC767125), ART-558 (NSC835418), sotorasib (NSC818433), MRTX-1133 (NSC836407), SN-38 (NSC673596), topotecan (NSC609699), etoposide (NSC141540), doxorubicin (NSC123127), gemcitabine (NSC613327), 5-fluorouracil (NSC19893), paclitaxel (NSC125973), vemurafenib (NSC761431), panobinostat (NSC761190), R-306465 (JNJ-16241199; NSC773264), adavosertib (NSC754352), TP-3654 (NSC805149), carboplatin (NSC241240), KSQ-4279 (NSC840948), and staurosporine (NSC755774) were obtained from the National Cancer Institute (NCI) Developmental Therapeutics Program Chemical Repository (34). The FDA-approved anticancer drug set is available from the NCI Developmental Therapeutics Program. […] The stock solutions were prepared in dimethyl sulfoxide (DMSO, Sigma-Aldrich, St. Louis, MO, cat. D2650) at 800-fold the tested concentration and stored at -70 degrees C prior to their use. All drugs and investigational agents were tested over a range starting from a high concentration at or near the clinical Cmax and decreasing in half-log increments. If the clinical Cmax for an agent had not been determined, the highest concentration tested was 10 microM.
2.3 Cell Culture. All cells were maintained in an incubator at 37 degrees C and 5% CO2 with 95% humidity. The PDC lines were cultured according to standard operating procedures established by the NCI PDMR. All PDCs were thawed and cultured in Matrigel-coated flasks prepared with a working solution of 1X Ham's F-12 nutrient mix, without supplementation (Invitrogen, cat. 11765054), 100 U/mL penicillin-streptomycin (Invitrogen, cat. 15140122), and 2.5% Matrigel (Corning Inc., cat. 354248) for the first three passages. The 857933-349-R-J2-PDC line was cultured in 6C/Colon 1B media, which includes advanced DMEM/F-12 (Thermo Fisher Scientific, cat. 12634028), 10 mM HEPES (Thermo Fisher Scientific, cat. 15630080), 1X GlutaMAX supplement (Thermo Fisher Scientific, cat. 35050061), 0.1 mg/mL primocin (InvivoGen, cat. ant-pm-2), 10% defined fetal bovine serum, heat inactivated (HyClone Laboratories Inc., cat. SH30070.03HI), 50% L-WRN conditioned media (ATCC, cat. CRL-3276), 1.25 mM N-Acetyl-L-cysteine (Sigma-Aldrich, cat. A9165), 10 mM nicotinamide (Sigma-Aldrich, cat. N0636), 1X B-27 supplement (Thermo Fisher Scientific, cat. 17504044), 1X N-2 supplement (Thermo Fisher Scientific, cat. 17502048), 10 microM Y-27632 dihydrochloride (Tocris Bioscience, cat. 1254), and 50 ng/mL human EGF recombinant protein (Thermo Fisher Scientific, cat. PHG0311). The 485176-168-R4-J1-PDC line was cultured in Panc media, which includes all 6C/Colon 1B media components plus 100 ng/mL human FGF-10 (Thermo Fisher Scientific, cat. 100-26), 500 nM SB-431542 (Selleckchem, cat. S1067), and gastrin (Tocris, cat. 3006).
[…]

[1] = curve of first compound, second compound 0.0316 µM
[2] = curve of first compound, second compound 0.1 µM
[3] = curve of first compound, second compound 0.316 µM
[4] = curve of first compound, second compound 1 µM
[5] = curve of first compound, second compound 3.16 µM
[6] = curve of first compound, second compound 10 µM
[7] = second compound 0.0316 µM, first compound 0.0316 µM
[8] = second compound 0.0316 µM, first compound 0.1 µM
[9] = second compound 0.0316 µM, first compound 0.316 µM
[10] = second compound 0.0316 µM, first compound 1 µM
[11] = second compound 0.0316 µM, first compound 3.16 µM
[12] = second compound 0.0316 µM, first compound 10 µM
[13] = second compound 0.1 µM, first compound 0.0316 µM
[14] = second compound 0.1 µM, first compound 0.1 µM
[15] = second compound 0.1 µM, first compound 0.316 µM
[16] = second compound 0.1 µM, first compound 1 µM
[17] = second compound 0.1 µM, first compound 3.16 µM
[18] = second compound 0.1 µM, first compound 10 µM
[19] = second compound 0.316 µM, first compound 0.0316 µM
[20] = second compound 0.316 µM, first compound 0.1 µM
[21] = second compound 0.316 µM, first compound 0.316 µM
[22] = second compound 0.316 µM, first compound 1 µM
[23] = second compound 0.316 µM, first compound 3.16 µM
[24] = second compound 0.316 µM, first compound 10 µM
[25] = second compound 1 µM, first compound 0.0316 µM
[26] = second compound 1 µM, first compound 0.1 µM
[27] = second compound 1 µM, first compound 0.316 µM
[28] = second compound 1 µM, first compound 1 µM
[29] = second compound 1 µM, first compound 3.16 µM
[30] = second compound 1 µM, first compound 10 µM
[31] = second compound 3.16 µM, first compound 0.0316 µM
[32] = second compound 3.16 µM, first compound 0.1 µM
[33] = second compound 3.16 µM, first compound 0.316 µM
[34] = second compound 3.16 µM, first compound 1 µM
[35] = second compound 3.16 µM, first compound 3.16 µM
[36] = second compound 3.16 µM, first compound 10 µM
[37] = second compound 10 µM, first compound 0.0316 µM
[38] = second compound 10 µM, first compound 0.1 µM
[39] = second compound 10 µM, first compound 0.316 µM
[40] = second compound 10 µM, first compound 1 µM
[41] = second compound 10 µM, first compound 3.16 µM
[42] = second compound 10 µM, first compound 10 µM
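Also: spheroids exposed to compounds for one week before readout.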
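For viability, T/C in this document: percent viability relative to vehicle DMSO wells taken as 100%.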

C#Cc1c(F)ccc2cc(O)cc(-c3ncc4c(N5CC6CCC(C5)N6)nc(OCC56CCCN5CC(F)C6)nc4c3F)c12 (stereo not given)
> 10000 nM: IC50 (curve of compound)
inactive: viability, T/C (compound 0.0316 µM) 94.6% and 101% and 111% | viability, T/C (compound 0.1 µM) 93.3% and 94.7% and 99.7% | viability, T/C (compound 0.316 µM) 93.6% and 91.5% and 99.1% | viability, T/C (compound 1 µM) 69.2% and 83.1% and 96.8% | viability, T/C (compound 3.16 µM) 75.5% and 70.2% and 97.1% | viability, T/C (compound 10 µM) 70% and 66.5% and 97.9%

Nc1ccn(C2OC(CO)C(O)C2(F)F)c(=O)n1 (stereo not given) + Cc1[nH]c2ccc(F)cc2c1-c1nc2c3cccnc3c3ncccc3c2[nH]1
active: viability, T/C [11] 8.63% | viability, T/C [12] 7.04% | viability, T/C [17] 8.84% | viability, T/C [18] 6.64% | viability, T/C [23] 7.77% | viability, T/C [24] 6.81% | viability, T/C [29] 8.22% | viability, T/C [30] 6.71% | viability, T/C [35] 8.23% | viability, T/C [36] 7.07% | viability, T/C [41] 7.69% | viability, T/C [42] 8.66%
337 nM: IC50 [1]
153 nM: IC50 [2]
inactive: viability, T/C [7] 73.6% | viability, T/C [8] 50.7% | viability, T/C [9] 53% | viability, T/C [10] 12.2% | viability, T/C [13] 81.9% | viability, T/C [14] 55.6% | viability, T/C [15] 40.1% | viability, T/C [16] 13.4% | viability, T/C [19] 71.9% | viability, T/C [20] 54.7% | viability, T/C [21] 53.2% | viability, T/C [22] 12% | viability, T/C [25] 76.5% | viability, T/C [26] 54.2% | viability, T/C [27] 45.2% | viability, T/C [28] 10.6% | viability, T/C [31] 74.5% | viability, T/C [32] 53.2% | viability, T/C [33] 50.2% | viability, T/C [34] 11.6% | viability, T/C [37] 73% | viability, T/C [38] 47.9% | viability, T/C [39] 48.8% | viability, T/C [40] 10.1%
255 nM: IC50 [6]
270 nM: IC50 [5]
169 nM: IC50 [4]
339 nM: IC50 [3]

COc1cccc2c1C(=O)c1c(O)c3c(c(O)c1C2=O)CC(O)(C(=O)CO)CC3OC1CC(N)C(O)C(C)O1 (stereo not given)
inactive: viability, T/C (compound 0.0316 µM) 84.6% and 101% and 86.6% | viability, T/C (compound 0.1 µM) 60% and 94.5% and 51.8% | viability, T/C (compound 0.316 µM) 57.6% and 71.5% and 49.7% | viability, T/C (compound 1 µM) 43.2% and 45.9% and 44.8% | viability, T/C (compound 3.16 µM) 7.65% and 8.98% and 6.13%
415 nM and 751 nM and 277 nM: IC50 (curve of compound)
active: viability, T/C (compound 10 µM) 0.27% and 0.59% and 0.13%

COc1ccc([C@@H](O)c2cc(-c3ncnc4cc(N5CCOCC5)ccc34)c(F)cc2Cl)nn1
inactive: viability, T/C (compound 0.0316 µM) 106% and 108% and 100% | viability, T/C (compound 0.1 µM) 90.5% and 103% and 89.7% | viability, T/C (compound 0.316 µM) 105% (2×) and 86% | viability, T/C (compound 1 µM) 82.6% and 98.4% and 79.4% | viability, T/C (compound 3.16 µM) 70.2% and 85.2% and 62% | viability, T/C (compound 10 µM) 56.8% and 59.8% and 48.4%
> 10000 nM and 8850 nM: IC50 (curve of compound)

CC(C)n1c(=O)n(C)c2cnc3cc(F)c(-c4ccc(OCCCN5CCCCC5)nc4)cc3c21 + Cc1cnc(CNC(=O)c2c(=O)c3ccc(N4CCCN(C)CC4)nc3n3c2sc2ccccc23)cn1
inactive: viability, T/C [7] 76.9% | viability, T/C [8] 60.9% | viability, T/C [9] 73.1% | viability, T/C [10] 69.2% | viability, T/C [11] 73.3% | viability, T/C [12] 54.3% | viability, T/C [13] 43.9% | viability, T/C [14] 45.5% | viability, T/C [15] 52.8% | viability, T/C [16] 52% | viability, T/C [17] 57.7% | viability, T/C [18] 31.4% | viability, T/C [19] 32.7% | viability, T/C [20] 39.1% | viability, T/C [21] 33% | viability, T/C [22] 35.2% | viability, T/C [23] 39.1% | viability, T/C [24] 17.5%
> 10000 nM: IC50 [1]
< 31.6 nM: IC50 [3] | IC50 [4] | IC50 [5] | IC50 [6]
active: viability, T/C [25] 9.65% | viability, T/C [26] 10.9% | viability, T/C [27] 8.38% | viability, T/C [28] 8.38% | viability, T/C [29] 11% | viability, T/C [30] 6.11% | viability, T/C [31] 3.19% | viability, T/C [32] 3.85% | viability, T/C [33] 4.08% | viability, T/C [34] 3.05% | viability, T/C [35] 4.81% | viability, T/C [36] 1.31% | viability, T/C [37] 3.24% | viability, T/C [38] 2.19% | viability, T/C [39] 2.95% | viability, T/C [40] 1.88% | viability, T/C [41] 2.22% | viability, T/C [42] 0.46%
3220 nM: IC50 [2]

— PubChem BioAssay AID2060491 (Molecular Pharmacology Branch, DTP, NCI, 2025)
